What all share (assay type): in vivo
The subject of one test is Toxocara canis. In words: Oral Test in dogs naturally infected with Toxocara canis. Conditions: single oral dose in gelatine capsule (Reference Example 1 5 mg/kg, praziquantel 1.25 mg/kg), postmortem on 10th day. How it is done:
(§1) Compound (5 mg/kg) of Reference Example 1 and praziquantel (1.25 mg/kg) were encapsulated into gelatine to a predetermined amount to prepare a formulation for Oral Test. Incidentally, formulations were prepared as controls by using each of the compound of Reference Example 1 solo and fipronil solo to carry out the test.
(§2) The formulation was administered orally once to dogs (two dogs in each test location) naturally infected with Dipylidium caninum and Toxocara canis. Incidentally, the infection with Dipylidium caninum was confirmed by the excretion of proglottid of Dipylidium caninum into faeces three days before administration of drugs. The infection with Toxocara canis was confirmed by the excretion of eggs of Toxocara canis into faeces immediately before administration of drugs. On the 10th day after the administration of drugs, the dogs were subjected to postmortem to count the number of surviving Dipylidium caninum and Toxocara canis.

The next test concerns Dipylidium caninum. In words: Oral Test in dogs naturally infected with Dipylidium caninum. Conditions: single oral dose in gelatine capsule (Reference Example 1 5 mg/kg, praziquantel 1.25 mg/kg), postmortem on 10th day. On the procedure:
as §1, §2

In a further test the test system is mites. Put plainly: Spot-on Test (Extermination Test on Mites) in dogs. As to conditions: dogs naturally infected; spot-on to back of neck, 5 mg/kg of Reference Example 1 (10 g : 3.8 g fipronil per 100 ml); examined three days after administration. On the procedure:
Compound (10 g) of Reference Example 1 and fipronil (3.8 g) were mixed. This mixture was dissolved in a mixed solvent (9:1) of benzyl alcohol and propylene carbonate so as to be a total volume of 100 ml, and 0.05% of BHT was further added to prepare a formulation for the spot-on test. Further, as a control, formulations were prepared by using each of the compound of Reference Example 1 solo and fipronil solo to carry out the test.
The above-described formulation for spot-on test was dropped to the back part of the neck of each dog (two dogs in each test location) naturally infected with mites at a dose of 5 mg/kg of the compound in Reference Example 1. In each dog, infection with mites was examined three days after the dropwise administration.

With `O=C(C1CCCCC1)N1CC(=O)N2CCc3ccccc3C2C1` (stereo not drawn) [praziquantels, praziquantel], in the test with Toxocara canis, the “exterminating Toxocara canis (number of surviving parasites at postmortem)” value was “ineffective”. Also, the “exterminating Dipylidium caninum (number of surviving parasites at postmortem)” value in the test on Dipylidium caninum is recorded as “effective”.

As for `N#Cc1nn(-c2c(Cl)cc(C(F)(F)F)cc2Cl)c(N)c1[S+]([O-])C(F)(F)F` (stereo not drawn) [fipronil], in the test with mites, the “treating infection with mites” value was “ineffective”.

In the case of “13-[1-(4-methoxyacetylaminophenyl) cyclopentanecarbonyloxy]-5-hydroxy-milbemycin A4 [Reference Example 1]”, the “exterminating Toxocara canis (number of surviving parasites at postmortem)” value in the test with Toxocara canis is listed as “effective”. Also, the “treating infection with mites” value with mites was “ineffective”. In addition, the “exterminating Dipylidium caninum (number of surviving parasites at postmortem)” value in the test on Dipylidium caninum is “ineffective”.

The record behind these values is patent publication US20040254125A1, “Anthelmintic composition” (priority 2001, published 2004).
